This is an account of results in patent US7754722B2, “Piperazine derivatives and methods of use” (Merck Serono SA, priority 2002, dated 2010).

The target in the assay is T1, FSH receptor (Homo sapiens, UniProt P23945).
T1 construct: expressed in transfected cells; host or cells: CHO (Chinese Hamster Ovary) cells, stably transfected, carrying a cAMP response element-luciferase reporter
T1 sequence (P23945 18-695): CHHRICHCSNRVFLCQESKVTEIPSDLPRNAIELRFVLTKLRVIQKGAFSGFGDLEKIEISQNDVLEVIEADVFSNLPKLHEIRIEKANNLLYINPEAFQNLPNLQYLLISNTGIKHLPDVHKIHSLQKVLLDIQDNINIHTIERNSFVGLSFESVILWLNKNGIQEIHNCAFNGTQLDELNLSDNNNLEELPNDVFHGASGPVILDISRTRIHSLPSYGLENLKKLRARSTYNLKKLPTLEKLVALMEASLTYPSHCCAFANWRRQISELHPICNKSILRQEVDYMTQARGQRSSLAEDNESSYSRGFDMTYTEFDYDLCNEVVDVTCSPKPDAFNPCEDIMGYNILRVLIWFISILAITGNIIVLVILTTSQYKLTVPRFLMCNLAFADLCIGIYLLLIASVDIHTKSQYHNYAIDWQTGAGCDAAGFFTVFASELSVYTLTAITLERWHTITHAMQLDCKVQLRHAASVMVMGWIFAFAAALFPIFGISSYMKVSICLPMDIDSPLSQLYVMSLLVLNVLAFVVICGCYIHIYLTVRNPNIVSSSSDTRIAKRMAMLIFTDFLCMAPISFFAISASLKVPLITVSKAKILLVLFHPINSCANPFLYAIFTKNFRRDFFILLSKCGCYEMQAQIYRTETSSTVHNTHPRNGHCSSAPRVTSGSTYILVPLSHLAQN
Briefly: FSH assay: cAMP response element luciferase reporter in CHO cells expressing recombinant FSH receptor. It is filed as cell-based. The settings on record: agonist activity; CHO cells stably transfected with recombinant FSH receptor; luciferase luminescence; log-dose-response curves; incubation 37° C. for 3 hrs 30 min; read-out: ED50 (the source's name). On the procedure: Compounds of the invention were tested in the following assay.
All compounds of the invention were stored in 96-well deepwell plates in DMSO at a nominal concentration of 10 μM. Compounds of the invention were screened for agonist activity at the FSH receptor using the recombinant FSH receptor stably transfected and expressed in Chinese Hamster Ovary Cells (CHO cells) essentially as described in the work by Kelton, et al. Molecular and Cellular Endocrinology, 1992, 89, 141-151). […] Thus an agonist at the FSH receptor increases cAMP in the cell which results in activation of the CREB (cAMP) response element binding protein). The substrate for the enzyme (Packard Instrument Company 800 Research Parkway, Meriden, Conn. 06450, USA) was added to the cells after appropriate incubation with the compounds or FSH and the amount of luciferase expressed was measured by quantitating the luminescence produced by the enzyme using a TopCount scintillation/luminescence counter running in single photon counting mode. A compound which acts as an agonist at the receptor should produce light from the treated cells in proportion to its concentration within the incubation. Luminescence should be saturable at high concentrations of the compound.
The compounds of the invention, in deepwell plates (Master plates) as indicated above were loaded on the robotic deck along with the appropriate number of assay plates and daughter plates. A 10 μl aliquot from each master plate was transferred to the corresponding daughter plate and 90 μl of DME/F12 was added and mixed within each well. 20 μl was then removed from the daughter plate and dispensed into the assay plate. After addition of an aliquot of FSH (equivalent to an EC100 response for this hormone to each of three wells on the plate, 80 μl of media (DME/F 12±2% serum) and 100 μl aliquot of cells (4×10^5/ml in the same media) were added and the plate incubated at 37° C. for 3 hrs 30 min. At this time the plate was removed from the incubator and media in each well was aspirated and the cells adhering to the bottom of the plate washed with 300 μl PBS containing 1 mM Ca^2+ and 1 mM Mg^2+. The PBS was aspirated and 100 μl PBS added to each well. 100 μl of Lucite (prepared as described by the manufacturer) was added to each well and the plate was shaken gently for 40 seconds prior to placement in the TopCount plate reader. After allowing 3.5 minutes for the plate to dark-adapt within the machine, the amount of luminescence generated was quantitated using Single Photon Counting mode. The data was transmitted electronically from the TopCount to the robot processing computer terminal and was renamed with an ID corresponding to the original master plate ID. […] LDR (log-dose-response) curves were generated for these compounds in CHO cells containing the FSH receptor and these curves were also compared with those in either cells expressing a different Gs linked receptor or in cells lacking any transfected receptor.
As for `CCCCCCN1CCN(S(=O)(=O)c2ccccc2F)[C@H](C(=O)Nc2ccc3c(c2)nc(-c2cccnc2)n3CC)C1` [1-(2-fluoro-benzenesulfonyl)-4-hexyl-piperazine-2-carboxylic acid (1-ethyl-2-pyridin-3-yl-1H-benzoimidazol-5-yl)amide], the EC50 was 0.074 µM.

Regarding `CCCCCCN1CCN(S(=O)(=O)c2ccc(F)cc2)[C@H](C(=O)Nc2ccc3c(c2)nc(-c2cccnc2)n3CC)C1` [1-(4-fluoro-benzenesulfonyl)-4-hexyl-piperazine-2-carboxylic acid (1-ethyl-2-pyridin-3-yl-1H-benzoimidazol-5-yl)amide], the EC50 turned out to be 0.167 µM.

`CCCCCCN1CCN(S(=O)(=O)CCCC)[C@H](C(=O)Nc2ccc3c(c2)nc(-c2cccnc2)n3CC)C1` [1-(butane-1-sulfonyl)-4-hexyl-piperazine-2-carboxylic acid (1-ethyl-2-pyridin-3-yl-1H-benzoimidazol-5-yl)amide]: the EC50 is 0.17 µM. With `CCCCCCN1CCN(S(=O)(=O)c2ccccc2)[C@H](C(=O)Nc2ccc3c(c2)nc(-c2cccnc2)n3CC)C1` [1-benzenesulfonyl-4-hexyl-piperazine-2-carboxylic acid (1-ethyl-2-pyridin-3-yl-1H-benzoimidazol-5-yl)amide] the figure was 0.15 µM. With `CCCCCCN1CCN(S(=O)(=O)N(C)C)C(C(=O)Nc2ccc3c(c2)nc(-c2cccnc2)n3CC)C1` (stereo not shown) [1-dimethylsulfamoyl-4-hexyl-piperazine-2-carboxylic acid (1-ethyl-2-pyridin-3-yl-1H-benzoimidazol-5-yl) amide] the figure was 0.242 µM.

In the case of `CCOC(=O)CN1CCN(S(=O)(=O)c2cccs2)[C@H](C(=O)Nc2ccc3c(c2)c2ccccc2n3CC)C1` [3-(9-ethyl-9H-carbazol-3-ylcarbamoyl)-4-(thiophene-2-sulfonyl)-piperazin-1-yl] acetic acid ethyl ester], the EC50 is 0.61 µM.

As to `CCCCCNC(=O)N1CCN(S(=O)(=O)c2cn(C)cn2)[C@H](C(=O)Nc2ccc3c(c2)c2ccccc2n3CC)C1` [4-(1-methyl-1H-imidazole-4-sulfonyl)-piperazine-1,3-dicarboxylic acid 3-[(9-ethyl-9H-carbazol-3-yl)-amide]1-pentylamide], the EC50 was determined as 3.16 µM. For the compound `CCn1c(-c2ccncc2)nc2cc(NC(=O)[C@@H]3CN(CCCSC)CCN3S(=O)(=O)c3cccs3)ccc21` [4-(3-methylsulfanyl-propyl)-1-(thiophene-2-sulfonyl)-piperazine-2-carboxylic acid (1-ethyl-2-pyridin-4-yl-1H-benzoimidazol-5-yl)amide], the EC50 amounted to 14 µM. With `CCn1c2ccccc2c2cc(NC(=O)[C@@H]3CN(CCCSC)CCN3S(=O)(=O)c3cccs3)ccc21` [4-(3-methylsulfanyl-propyl)-1-(thiophene-2-sulfonyl)-piperazine-2-carboxylic acid (9-ethyl-9H-carbazol-3-yl)-amide] the figure was 1.7 µM; with `CCc1cocc1CN1CCN(S(=O)(=O)c2cccs2)[C@H](C(=O)Nc2ccc3c(c2)c2ccccc2n3CC)C1` [4-(4-ethyl-furan-3-ylmethyl)-1-(thiophene-2-sulfonyl)-piperazine-2-carboxylic acid (9-ethyl-9H-carbazol-3-yl)-amide], 1.6 µM; with `CCCCCNC(=O)N1CCN(S(=O)(=O)c2cccs2)[C@H](C(=O)Nc2cccc(-c3ccncc3)c2)C1` [4-(thiophene-2-sulfonyl)-piperazine-1,3-dicarboxyclic acid 1-pentylamide 3-[(3-pyridin-4-yl-phenyl)-amide]], 5 µM.

As for `CCNC(=O)N1CCN(S(=O)(=O)c2cccs2)[C@H](C(=O)Nc2ccc3c(c2)c2ccccc2n3CC)C1` [4-(thiophene-2-sulfonyl)-piperazine-1,3-dicarboxylic acid 1-ethylamide 3-[(9-ethyl-9H-carbazol-3-yl)amide]], the EC50 is 0.877 µM. With `CCn1c2ccccc2c2cc(NC(=O)[C@@H]3CN(C(=O)NCCCn4ccnc4)CCN3S(=O)(=O)c3cccs3)ccc21` [4-(thiophene-2-sulfonyl)-piperazine-1,3-dicarboxylic acid 3-[(9-ethyl-9H-carbazol-3-yl)-amide]1-[(3-imidazol-1-yl-propyl)-amide])] the figure was 6.47 µM. `CCn1c2ccccc2c2cc(NC(=O)[C@@H]3CN(C(=O)NCCOC)CCN3S(=O)(=O)c3cccs3)ccc21` [4-(thiophene-2-sulfonyl)-piperazine-1,3-dicarboxylic acid 3-[(9-ethyl-9H-carbazol-3-yl)-amide]1-{(2-methoxy-ethyl)-amide]]: the EC50 turned out to be 1.61 µM. Regarding `CCn1c2ccccc2c2cc(NC(=O)[C@@H]3CN(C(=O)NCCc4c[nH]cn4)CCN3S(=O)(=O)c3cccs3)ccc21` [4-(thiophene-2-sulfonyl)-piperazine-1,3-dicarboxylic acid 3-[(9-ethyl-9H-carbazol-3-yl)-amide] 1-{[2-(1H-imidazol-4-yl)-ethyl]-amide}], the EC50 came out at 6.25 µM. Turning to `CCCCCNC(=O)N1CCN(S(=O)(=O)c2cccs2)[C@H](C(=O)Nc2ccc3c(c2)c2ccccc2n3CC)C1` [4-(thiophene-2-sulfonyl)-piperazine-1,3-dicarboxylic acid 3-[(9-ethyl-9H-carbazol-3-yl)amide]-1-pentylamide], the EC50 was determined as 0.063 µM. With `CCCCCNC(=O)N1CCN(S(=O)(=O)N(C)C)[C@H](C(=O)Nc2ccc3c(c2)c2ccccc2n3CC)C1` [4-dimethylsulfamoyl-piperazine-1,3-dicarboxylic acid 3-[(9-ethyl-9H-carbazol-3-yl)-amide]1-pentylamide], the EC50 is 0.403 µM. With `CCCCCCCN1CCN(S(=O)(=O)c2cccs2)[C@H](C(=O)Nc2ccc3c(c2)nc(-c2cccnc2)n3CC)C1` [4-heptyl-1-(thiophene-2-sulfonyl)-piperazine-2-carboxylic acid (1-ethyl-2-pyridin-3-yl-1H-benzoimidazol-5-yl)-amide], the EC50 was 0.094 µM. `CCCCCCCN1CCN(S(=O)(=O)c2cccs2)[C@H](C(=O)Nc2ccc3c(c2)nc(-c2ccncc2)n3CC)C1` [4-heptyl-1-(thiophene-2-sulfonyl)-piperazine-2-carboxylic acid (1-ethyl-2-pyridin-4-yl-1H-benzoimidazol-5-yl)amide]: the EC50 was 0.053 µM. Consider `CCCCCCCN1CCN(S(=O)(=O)c2cccs2)C(C(=O)Nc2ccc3[nH]c4c(c3c2)CCNC4=O)C1` (stereo not drawn) [4-heptyl-1-(thiophene-2-sulfonyl)-piperazine-2-carboxylic acid (1-oxo-2,3,4,9-tetrahydro-1H-beta-carbolin-6-yl)amide], for which the EC50 is 1.2 µM. `CCCCCCN1CCN(S(=O)(=O)c2cccs2)[C@H](C(=O)Nc2ccc3c(c2)nc(-c2ccncc2)n3CC)C1` [4-hexyl-1-(thiophene-2-sulfonyl)-piperazine-2-carboxylic acid (1-ethyl-2-pyridin-4-yl-1H-benzoimidazol-5-yl)amide]: the EC50 was found to be 0.111 µM. With `CCCCCCN1CCN(S(=O)(=O)c2cccs2)[C@H](C(=O)Nc2ccc3c(c2)nc(-c2cccnc2)n3CC)C1` [4-hexyl-1-(thiophene-2-sulfonyl)-piperazine-2-carboxylic acid (1-ethyl-2-pyridinyl-3-yl-1H-benzoimidazole-5-yl)-amide)], the EC50 worked out at 0.04 µM.
